Test results reported in US20160115186A1, “PHOSPHORIC ACID/PHOSPHONIC ACID DERIVATIVES AND MEDICINAL USES THEREOF” (priority 2013, published 2016).
Like-named read-outs stand apart in the source and are kept apart here.

Assays:
[1] = tested on: HBV; assay: microbe, parasite or virus in culture; type: cell-based; conditions: Hepatitis B virus, HepG2.2.15, 240 h; Hep G 2.2.15 cells, HBV DNA in supernate at day 10 post-dosing; read-out: IC50
Procedure: At day 10 post-dosing, 100 μl supernate was taken and the content of HBV DNA was measured by the method of Quantitative PCR to calculate IC50 value.

[2] = in vitro; type: cell-based; conditions: human; Hep G 2.2.15 cells, MTT, day 3 post-dosing
Procedure: Hep G 2.2.15 cells were inoculated in a 96-well plate (with cell number being 5.5×10^4) to continually cultivate for 3 days, new culture solutions containing different concentrations of drugs were added, and 3 wells were provided in parallel; at day 3 post-dosing, MTT was added until 7.5 mg/ml, and continued to cultivate for 2 hours, the supernate was discarded, isopropanol containing 10% […] was added, 120 μl/well, and 0.4 μl/well was further added.

[3] = tested on: DHBV; assay: animal or person; type: in vivo, sheldrakes; conditions: Duck hepatitis B virus, po, 336 h, serum DHBV DNA; for inhibition in vivo at 10 mg/kg: 10 mg/kg intragastric once a day for 14 days; for inhibition in vivo at 20 mg/kg: 20 mg/kg intragastric once a day for 14 days
Procedure: The sheldrakes infected by vertical transmission and being positive in DHBV DNA detection were grouped randomly, 5/group. Water and different doses of the compound to be tested were intragastrically administrated, respectively, once a day, for 14 days. Venous blood samples were collected pre-dosing, at day 14 of dosing and at day 7 after drug withdrawal, the serum DHBV DNA content was measured using external standard TaqMan real-time fluorescence PCR method, and the inhibition ratio was calculated, as compared to the solvent group.

[4] = tested on: liver damage in mice caused by D-aminogalactose; type: in vivo, Kunmin mice; conditions: serum, D-aminogalactose 750 mg/kg model, 0.2 mmol oral twice, 24 hours after second administration
Procedure: Kunmin mice (20 g) were grouped randomly (8/group). 0.2 mmol of a compound to be tested was orally administered; after 2 hours post-dosing, D-aminogalactose was intraperitoneally injected at a dose of 750 mg/kg to prepare a liver damage model, and the normal saline was subcutaneously injected as a normal control group. After modeling for 12 hours, 0.2 mmol of the compound to be tested was orally administrated again. After 24 hours from the second administration, blood samples were collected to take serum specimen so as to determine ALT, AST.

[5] = tested on: liver damage in mice caused by CCl4; type: in vivo, Kunmin mice; conditions: serum, CCl4 model, 0.2 mmol oral twice, 24 hours after second administration
Procedure: Kunmin mice (20 g) were grouped randomly (8/group). 0.2 mmol of a compound to be tested was orally administered; after 1 hour post-dosing, a 0.1% peanut oil solution of CCl4 was subcutaneously injected (10 mL/kg), to prepare a liver damage model; the normal saline was injected as a normal control group. After modeling for 12 hours, 0.2 mmol of the compound to be tested was orally administrated again. After 24 hours from the second administration, blood samples were collected to take serum specimen so as to determine ALT, AST.

[6] = read-out: Inhibition ratio (%) Day 14 of dosing
[7] = read-out: Inhibition ratio (%) day 7 after drug withdrawal

`C=C1[C@H](CO[P@@](=O)(N[C@@H](C)C(=O)OC(C)C)Oc2cccc3c2OCO3)[C@@H](O)C[C@@H]1n1cnc2c(=O)[nH]c(N)nc21` [Compound I39-b] showed an IC50 [1] of 0.065 µM.

Compound `CC(C)OC(=O)[C@@H](C)NP(=O)(CO[C@H](C)Cn1cnc2c(N)ncnc21)Oc1ccc2c(c1)OCO2` (stereo partly drawn) [Compound I21] has a CC50 at 3 days [2] of over 200 µM.

Work on `CCOC(=O)[C@@H](C)NP(=O)(CO[C@H](C)Cn1cnc2c(N)ncnc21)Oc1ccc2c(c1)OCO2` (stereo partly drawn) [Compound I20] yielded a CC50 at 3 days [2] of 179 µM.

Work on `COC(=O)[C@H](C)N[P@](=O)(OC[C@H]1O[C@@H](n2ccc(N)nc2=O)CS1)Oc1ccc2c(c1)OCO2` [Compound I37] yielded an inhibition in vivo at 10 mg/kg [3, 6] of 75.2%, an inhibition in vivo at 10 mg/kg [3, 7] of 9.4% and a CC50 [2] of 193 µM.

For `COc1nc(N)nc2c1ncn2[C@@H]1O[C@H](CO[P@@](=O)(N[C@@H](C)C(=O)OC2CCCCC2)Oc2ccc3c(c2)OCO3)[C@@H](O)[C@@]1(C)F` [Compound I35], the CC50 [2] was over 200 µM.

Work on `C=C1[C@H](COP(=O)(Oc2ccc3c(c2)OCO3)Oc2ccc3c(c2)OCO3)[C@@H](O)C[C@@H]1n1cnc2c(OC)nc(N)nc21` [Compound I16, 2-amino-6-methoxyl-9-[(1S,3R,4S)-4-hydroxyl-3-(bis-(((benzo[1,3]dioxolan-5-yl)-oxyl)-phosphoryl)-oxymethyl)-2-methylenecyclopentyl]-purine] yielded a CC50 at 3 days [2] of over 200 µM.

`COc1nc(N)nc2c1ncn2[C@@H]1O[C@H](COP(=O)(N[C@@H](C)C(=O)OC(C)C)Oc2ccc3c(c2)OCO3)[C@@H](O)[C@@]1(C)F` (stereo partly drawn) [Compound I34] showed a CC50 [2] of over 200 µM.

In the case of `CC(C)Cc1sc(N)nc1-c1ccc(P(=O)(Oc2ccc3c(c2)OCO3)Oc2ccc3c(c2)OCO3)o1` [Compound I10, bis-(benzo[1,3]dioxolan-5-yl) [5-[2-amino-5-(2-methylpropyl)-thiazol-4-yl]-furan-2-yl]-phosphonate], the CC50 at 3 days [2] is reported as over 200 µM.

`CC(C)OC(=O)[C@H](C)N[P@](=O)(OC[C@H]1O[C@@H](n2ccc(=O)[nH]c2=O)[C@](C)(F)[C@@H]1O)Oc1ccccc1` [PSI-7977, 5′-[(S)-[[(S)-1-(isopropoxycarbonyl)-ethyl]-amino]-phenoxylphosphoryl]-β-D-2′-deoxy-2′-α-fluoro-2′-β-C-methyluridine, reference compound] gave an ALT [4] of 1079 U/L, an AST [4] of 1727 U/L and a CC50 [2] of 178 µM. For the same compound, the ALT [5] was 2324 U/L and the AST [5] was 2538 U/L.

For `C[C@@]1(F)[C@H](O)[C@@H](COP(=O)(Oc2ccc3c(c2)OCO3)Oc2ccc3c(c2)OCO3)O[C@H]1n1ccc(=O)[nH]c1=O` [Compound I17, 5′-O-[bis-((benzo[1,3]dioxolan-5-yl)-oxyl)-phosphoryl]-β-D-2′-deoxy-2′-α-fluoro-2′-β-C-methyl uridine], the CC50 at 3 days [2] was over 200 µM.

Work on `C[C@H](Cn1cnc2c(N)ncnc21)OCP(=O)(N[C@H](C)C(=O)OC1CCCCC1)Oc1ccc2c(c1)OCO2` (stereo partly drawn) [Compound I25] yielded a CC50 at 3 days [2] of over 200 µM.

In the case of `COC(=O)[C@@H](C)NP(=O)(OCCOCn1cnc2c(=O)[nH]c(N)nc21)Oc1ccccc1` (stereo partly drawn) [i-3, reference compound], the inhibition in vivo at 20 mg/kg [3, 6] is reported as 56.6%, the inhibition in vivo at 20 mg/kg [3, 7] is reported as 14.6% and the ALT [4] is reported as 1150 U/L. For the same compound, the AST [4] was 1419 U/L, the CC50 [2] was 177 µM and the ALT [5] was 231 U/L. It also gave an AST [5] of 446 U/L.

`COc1nc(N)nc2c1ncn2[C@@H]1O[C@H](COP(=O)(N[C@@H](C)C(=O)OC(C)C)Oc2cccc3c2OCO3)[C@@H](O)[C@@]1(C)F` (stereo partly drawn) [Compound I40] gave a CC50 [2] of over 200 µM.

With `CC(C)OC(=O)[C@H](C)N[P@](=O)(OC[C@H]1O[C@@H](n2ccc(=O)[nH]c2=O)[C@](C)(F)[C@@H]1O)Oc1ccc2c(c1)OCO2` [Compound I31-b] the ALT [4] was 375 U/L, the AST [4] was 751 U/L and the ALT [5] was 205 U/L. For the same compound, the AST [5] was 439 U/L.

In the case of `C[C@H](N[P@](=O)(OC[C@H]1O[C@@H](n2ccc(=O)[nH]c2=O)[C@](C)(F)[C@@H]1O)Oc1ccc2c(c1)OCO2)C(=O)OC1CCCCC1` [Compound I32], the CC50 [2] is reported as over 200 µM.

In the case of `CCOC(=O)[C@H](C)N[P@](=O)(OC[C@H]1O[C@@H](n2cnc3c(OC)nc(N)nc32)[C@](C)(F)[C@@H]1O)Oc1ccc2c(c1)OCO2` [Compound I33], the CC50 [2] is reported as over 200 µM.

In the case of `Cc1cc(OCP(=O)(Oc2ccc3c(c2)OCO3)Oc2ccc3c(c2)OCO3)cc(C)c1Cc1ccc(O)c(C(C)C)c1` [Compound I9, bis-(benzo[1,3]dioxolan-5-yl) [(3,5-dimethyl-4-(4′-hydroxyl-3′-isopropylbenzyl)phenoxyl)-methyl]-phosphonate], the CC50 at 3 days [2] is reported as over 200 µM.

Work on `COc1ccc(Sc2nc(N)nc3c2ncn3CCOCP(=O)(Oc2cccc3c2OCO3)Oc2cccc3c2OCO3)cc1` [Compound I7, 2-amino-6-(4-methoxylphenyl)thio-9-[[[bis-((benzo[1,3]dioxolan-4-yl)-oxyl)-phosphonyl]-methoxyl]-ethyl]-purine] yielded a CC50 at 3 days [2] of over 200 µM.

`CCOC(=O)[C@H](C)N[P@](=O)(OC[C@H]1O[C@@H](n2ccc(=O)[nH]c2=O)[C@](C)(F)[C@@H]1O)Oc1ccc2c(c1)OCO2` [Compound I30] showed a CC50 [2] of over 200 µM.

In the case of `CC(C)C[C@@H](NP(=O)(CO[C@H](C)Cn1cnc2c(N)ncnc21)Oc1ccc2c(c1)OCO2)C(=O)OC(C)C` (stereo partly drawn) [Compound I23], the CC50 at 3 days [2] is reported as over 200 µM.

Compound `COc1nc(N)nc2c1ncn2[C@@H]1O[C@H](CO[P@](=O)(N[C@@H](C)C(=O)OC(C)C)Oc2ccc3c(c2)OCO3)[C@@H](O)[C@@]1(C)F` [Compound I34-a] has an ALT [4] of 131 U/L, an AST [4] of 282 U/L and an ALT [5] of 293 U/L. For the same compound, the AST [5] was 763 U/L.

`COc1nc(N)nc2c1ncn2[C@@H]1O[C@H](CO[P@@](=O)(N[C@@H](C)C(=O)OC(C)C)Oc2ccccc2)[C@@H](O)[C@@]1(C)F` [PSI-353661, reference compound] showed an ALT [4] of 1558 U/L, an AST [4] of 1027 U/L and a CC50 [2] of 149 µM. The ALT [5] was 1669 U/L and the AST [5] was 2312 U/L.

Work on `C[C@H](Cn1cnc2c(N)ncnc21)OCP(=O)(Oc1cccc2c1OCO2)Oc1cccc2c1OCO2` [Compound I5, 9-[(R)-2-[[bis-((benzo[1,3]dioxolan-4-yl)-oxyl)-phosphonyl]-methoxyl]-propyl]-adenine] yielded a CC50 at 3 days [2] of over 200 µM.

Work on `C=C1[C@H](CO[P@](=O)(N[C@@H](C)C(=O)OC(C)C)Oc2cccc3c2OCO3)[C@@H](O)C[C@@H]1n1cnc2c(=O)[nH]c(N)nc21` [Compound I39-a] yielded an IC50 [1] of 0.017 µM.

`COc1nc(N)nc2c1ncn2[C@@H]1O[C@H](CO[P@@](=O)(N[C@@H](C)C(=O)OC(C)C)Oc2ccc3c(c2)OCO3)[C@@H](O)[C@@]1(C)F` [Compound I34-b] gave an ALT [4] of 341 U/L, an AST [4] of 194 U/L and an ALT [5] of 289 U/L. For the same compound, the AST [5] was 536 U/L.

Compound `CC(C)OC(=O)[C@H](C)N[P@@](=O)(OC[C@H]1O[C@@H](n2ccc(=O)[nH]c2=O)[C@](C)(F)[C@@H]1O)Oc1ccc2c(c1)OCO2` [Compound I31-a] has an ALT [4] of 421 U/L, an AST [4] of 253 U/L and an ALT [5] of 507 U/L. It also gave an AST [5] of 446 U/L.

`C=C1[C@H](COP(=O)(N[C@@H](C)C(=O)OC(C)C)Oc2cccc3c2OCO3)[C@@H](O)C[C@@H]1n1cnc2c(=O)[nH]c(N)nc21` (stereo partly drawn) [Compound I39, 9-[(1S,3R,4S)-4-hydroxyl-3-[(((benzo[1,3]dioxolan-4-yl)-oxyl)-1-isopropoxycarbonylethylamino-phosphoryl)-oxymethyl]-2-methylenecyclopentyl]-guanine] gave a CC50 [2] of 182 µM.

Work on `CC(C)OC(=O)[C@H](C)N[P@](=O)(OC[C@H]1O[C@@H](n2ccc(N)nc2=O)CS1)Oc1ccc2c(c1)OCO2` [Compound I36] yielded an inhibition in vivo at 20 mg/kg [3, 6] of 92%, an inhibition in vivo at 20 mg/kg [3, 7] of 10.8% and an ALT [4] of 187 U/L. The AST [4] was 113 U/L, the CC50 [2] was over 200 µM and the ALT [5] was 490 U/L. The AST [5] was 543 U/L.

In the case of `CC(C)OC(=O)[C@H](C)NP(=O)(OC[C@H]1O[C@@H](n2ccc(=O)[nH]c2=O)[C@](C)(F)[C@@H]1O)Oc1ccc2c(c1)OCO2` (stereo partly drawn) [Compound I31], the CC50 [2] is reported as over 200 µM.
